Results on two compounds are retold here after patent US7132504B2, “Hepatitis C virus inhibitors” (Bristol-Myers Squibb Company, priority 2003, dated 2006).

SMILES strings stand for the structures.

For experiment [1], the target named is T1, HCV NS3/4A protease complex (UniProt P27958, C1454S/C1711G, species not given).
T1 construct: fused on or other part: Three-lysine solubilising tail at the C-terminus of NS4A
In words: Recombinant HCV NS3/4A protease complex FRET peptide assay (strain not stated). Type of experiment: biochemical. Conditions: NS3/4A protease enzyme assay, read-out: Activity Range IC50. An excerpt: The purpose of this in vitro assay was to measure the inhibition of HCV NS3 protease complexes, derived from the BMS strain, H77 strain or J416S strain, as described below, by compounds of the present invention. This assay provides an indication of how effective compounds of the present invention would be in inhibiting HCV proteolytic activity.
Serum from an HCV-infected patient was obtained from Dr. T. Wright, San Francisco Hospital. An engineered full-length cDNA (compliment deoxyribonucleic acid) template of the HCV genome (BMS strain) was constructed from DNA fragments obtained by reverse transcription-PCR (RT-PCR) of serum RNA (ribonucleic acid) and using primers selected on the basis of homology between other genotype 1a strains. From the determination of the entire genome sequence, a genotype 1a was assigned to the HCV isolate according to the classification of Simmonds et al. (See P Simmonds, K A Rose, S Graham, S W Chan, F McOmish, B C Dow, E A Follett, P L Yap and H Marsden, J. Clin. Microbiol., 31(6), 1493–1503 (1993)). […] The infectious clones, H77 (1a genotype) and J4L6S (1b genotype) were obtained from R. Purcell (NIH) and the sequences are published in Genbank (AAB67036, see Yanagi, M., Purcell, R. H., Emerson, S. U. and Bukh, J. Proc. Natl. Acad. Sci. U.S.A. 94(16), 8738–8743 (1997); AF054247, see Yanagi, M., St Claire, M., Shapiro, M., Emerson, S. U., Purcell, R. H. and Bukh, J, Virology 244 (1), 161–172. (1998)).
The H77 and J4L6S strains were used for production of recombinant NS3/4A protease complexes. DNA encoding the recombinant HCV NS3/4A protease complex (amino acids 1027 to 1711) for these strains were manipulated as described by P. Gallinari et al. (see Gallinari P, Paolini C, Brennan D, Nardi C, Steinkuhler C, De Francesco R. Biochemistry. 38(17):5620–32, (1999)). Briefly, a three-lysine solubilizing tail was added at the 3′-end of the NS4A coding region. The cysteine in the P1 position of the NS4A–NS4B cleavage site (amino acid 1711) was changed to a glycine to avoid the proteolytic cleavage of the lysine tag. Furthermore, a cysteine to serine mutation was introduced by PCR at amino acid position 1454 to prevent the autolytic cleavage in the NS3 helicase domain. The variant DNA fragment was cloned in the pET21b bacterial expression vector (Novagen) and the NS3/4A complex was expressed in Escherichia. coli strain BL21 (DE3) (Invitrogen) following the protocol described by P. Gallinari et al. (see Gallinari P, Brennan D, Nardi C, Brunetti M, Tomei L, Steinkuhler C, De Francesco R., J Virol. 72(8):6758–69 (1998)) with modifications. Briefly, the NS3/4A protease complex expression was induced with 0.5 millimolar (mM) Isopropyl β-D-1-thiogalactopyranoside (IPTG) for 22 hours (h) at 20° C. A typical fermentation (1 Liter (L)) yielded approximately 10 grams (g) of wet cell paste. The cells were resuspended in lysis buffer (10 mL/g) consisting of 25 mM N-(2-Hydroxyethyl)Piperazine-N′-(2-Ethane Sulfonic acid) (HEPES), pH 7.5, 20% glycerol, 500 mM Sodium Chloride (NaCl), 0.5% Triton X-100, 1 microgram/milliliter (“μg/mL”) lysozyme, 5 mM Magnesium Chloride (MgCl2), 1 μg/ml Dnasel, 5 mM β-Mercaptoethanol (βME), Protease inhibitor—Ethylenediamine Tetraacetic acid (EDTA) free (Roche), homogenized and incubated for 20 minutes (min) at 4° C. The homogenate was sonicated and clarified by ultra-centrifugation at 235000 g for 1 h at 4° C. Imidazole was added to the supernatant to a final concentration of 15 mM and the pH adjusted to 8.0. The crude protein extract was loaded on a Nickel—Nitrilotriacetic acid (Ni-NTA) column pre-equilibrated with buffer B (25 mM HEPES, pH 8.0, 20% glycerol, 500 mM NaCl, 0.5% Triton X-100, 15 mM imidazole, 5 mM βME). The sample was loaded at a flow rate of 1 mL/min. The column was washed with 15 column volumes of buffer C (same as buffer B except with 0.2% Triton X-100). The protein was eluted with 5 column volumes of buffer D (same as buffer C except with 200 mM Imidazole). […]

In experiment [2] the test system is HCV replicon in Huh7 cells. The experiment can be described thus: HCV replicon cell-based assay (FRET). Conditions: Hepatitis C virus, Huh-7, 96 h, 4 days, read-out: Activity Range EC50. Details: species or system HCV strain 1b. The source says: An HCV replicon whole cell system was established as described by Lohmann V, Korner F, Koch J, Herian U, Theilmann L, Bartenschlager R., Science 285(5424):110–3 (1999). This system enabled us to evaluate the effects of our HCV Protease compounds on HCV RNA replication. Briefly, using the HCV strain 1b sequence described in the Lohmann paper (Assession number:AJ238799), an HCV cDNA was generated encoding the 5′ internal ribosome entry site (IRES), the neomycin resistance gene, the EMCV (encephalomyocarditis viurs)-IRES and the HCV nonstructural proteins, NS3–NS5B, and 3′ non-translated region (NTR). In vitro transcripts of the cDNA were transfected into the human hepatoma cell line, Huh7. […] Resulting cell lines were characterized for positive and negative strand RNA production and protein production over time.
Huh7 cells, constitutively expressing the HCV replicon, were grown in Dulbecco's Modified Eagle Media (DMEM) containing 10% Fetal calf serum (FCS) and 1 mg/ml G418 (Gibco-BRL). Cells were seeded the night before (1.5×10^4 cells/well) in 96-well tissue-culture sterile plates. Compound and no compound controls were prepared in DMEM containing 4% FCS, 1:100 Penicillin/Streptomysin, 1:100 L-glutamine and 5% DMSO in the dilution plate (0.5% DMSO final concentration in the assay). Compound/DMSO mixes were added to the cells and incubated for 4 days at 37° C. After 4 days, plates were rinsed thoroughly with Phosphate-Buffered Saline (PBS) (3 times 150 μl). The cells were lysed with 25 μl of a lysis assay reagent containing the FRET peptide (RET S1, as described for the in vitro enzyme assay). The lysis assay reagent was made from 5× cell Luciferase cell culture lysis reagent (Promega #E153A) diluted to 1× with distilled water, NaCl added to 150 mM final, the FRET peptide diluted to 10 μM final from a 2 mM stock in 100% DMSO. The plate was then placed into the Cytofluor 4000 instrument which had been set to 340 nm excitation/490 nm emission, automatic mode for 21 cycles and the plate read in a kinetic mode. EC50 determinations were carried out as described for the IC50 determinations. […]
The percentage inhibition was calculated using the formula below: […]
The values were graphed and analyzed using XLFit to obtain the EC50 value.

Usually IC50 stands for the concentration that inhibits the measured activity by half. What is called EC50 is the concentration at which the effect is half-maximal. Regarding `C=CC1C[C@]1(NC(=O)[C@@H]1C[C@@H](Oc2nccc3cc(OC)ccc23)CN1C(=O)[C@@H](NC(=O)OC(C)(C)C)C(C)(C)C)C(=O)NS(=O)(=O)N(C)C(C)C` (stereo partly shown) [Compound 21], in experiment [1], the IC50 lay in the range of 150 to 1500 nM. In addition, the EC50 in experiment [2] was 150 to 1500 nM.
With `C=CC1C[C@]1(NC(=O)[C@@H]1C[C@@H](Oc2nc(-c3ccncc3)cc3ccccc23)CN1C(=O)[C@@H](NC(=O)OC(C)(C)C)C(C)(C)C)C(=O)NS(=O)(=O)N(C)C` (stereo partly shown) [Compound 23], the IC50 in experiment [1] was under 150 nM. Besides, the EC50 in experiment [2] is under 150 nM.
